Source: PubChem BioAssay (NCI)
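All cell lines were grown in 96-well plates and treated with compound for 48 hours. Definition used: TGI = concentration required for complete inhibition of growth.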 *1 amine or outer side, *2 acyl side, *3 side chain or, on linkers, in order; H or OH if unused. Where a SMILES comes first, the peptide text is derived from it. [ ]: non-standard residue; d: D form. ξ: configuration not given here. X22 = O=C(C(CC(O)CO)O[*:1])[*:2]; Ile(3ξ) = CCC(C)[C@H](N)C(=O)O; NMeV = CN[C@H](C(=O)O)C(C)C; NMeA = CN[C@@H](C)C(=O)O; βAla = NCCC(=O)O

Tests used:
Test in all cases: DTP human tumour cell line panel, 48 h
SF-268 CNS = system: SF-268 CNS
K-562 leukemia = system: K-562 leukemia
NCI-H460 lung = system: NCI-H460 lung
TK-10 renal = system: TK-10 renal
COLO 205 colon = system: COLO 205 colon
OVCAR-3 ovarian = system: OVCAR-3 ovarian
SK-OV-3 ovarian = system: SK-OV-3 ovarian
UACC-257 melanoma = system: UACC-257 melanoma
IGROV1 ovarian = system: IGROV1 ovarian
NCI-H522 lung = system: NCI-H522 lung
EKVX NSCLC = system: EKVX NSCLC
ACHN renal = system: ACHN renal
CCRF-CEM leukemia = system: CCRF-CEM leukemia
RPMI-8226 leukemia = system: RPMI-8226 leukemia
SNB-75 CNS = system: SNB-75 CNS
RXF 393 renal = system: RXF 393 renal
SF-539 CNS = system: SF-539 CNS
SR leukemia = system: SR leukemia
DU-145 prostate = system: DU-145 prostate

| SMILES | TGI (SF-268 CNS) | TGI (K-562 leukemia) | TGI (NCI-H460 lung) | TGI (TK-10 renal) | TGI (COLO 205 colon) | TGI (OVCAR-3 ovarian) | TGI (SK-OV-3 ovarian) | TGI (UACC-257 melanoma) | TGI (IGROV1 ovarian) | TGI (NCI-H522 lung) | TGI (EKVX NSCLC) | TGI (ACHN renal) | TGI (CCRF-CEM leukemia) | TGI (RPMI-8226 leukemia) | TGI (SNB-75 CNS) | TGI (RXF 393 renal) | TGI (SF-539 CNS) | TGI (SR leukemia) | TGI (DU-145 prostate) |
| --- | --- | --- | --- | --- | --- | --- | --- | --- | --- | --- | --- | --- | --- | --- | --- | --- | --- | --- | --- |
| COC1=CC(=O)C2C(C1=O)C(c1ccc(Cl)cc1)[C@@H]2C (stereo partly drawn) | 92.7 µM | > 100 µM | 75.6 µM | > 100 µM | > 100 µM | > 100 µM | > 100 µM | > 100 µM | > 100 µM | 29.8 µM | 71.4 µM | 31.9 µM | 93.2 µM | > 100 µM | 64.8 µM | 79.1 µM | 51.2 µM | – | – |
| CCOC(=O)c1c2ccc(/C=C/c3ccccc3)ccc-2c(C(=O)OCC)c1N | > 100 µM | > 100 µM | > 100 µM | > 100 µM | > 100 µM | > 100 µM | > 100 µM | > 100 µM | > 100 µM | > 100 µM | > 100 µM | > 100 µM | > 100 µM | – | 99.4 µM | > 100 µM | > 100 µM | > 100 µM | – |
| C[N+]1(C)C[C@@H](O)C[C@@H]1C(=O)[O-] | > 100 µM | > 100 µM | > 100 µM | > 100 µM | > 100 µM | > 100 µM | > 100 µM | > 100 µM | > 100 µM | > 100 µM | > 100 µM | > 100 µM | > 100 µM | > 100 µM | > 100 µM | > 100 µM | > 100 µM | > 100 µM | – |
| CSc1nc2nc(C(O)C(O)C(O)CO)cnc2c(=O)[nH]1 (stereo not drawn) | > 100 µM | – | > 100 µM | > 100 µM | > 100 µM | > 100 µM | > 100 µM | > 100 µM | > 100 µM | > 100 µM | > 100 µM | > 100 µM | > 100 µM | > 100 µM | > 100 µM | > 100 µM | > 100 µM | – | – |
| C=C(C)CC(C)(c1cc2ccccc2n1C)N1CCOCC1 (stereo not drawn) | > 100 µM | – | > 100 µM | > 100 µM | > 100 µM | > 100 µM | > 100 µM | > 100 µM | > 100 µM | 60.9 µM | > 100 µM | > 100 µM | > 100 µM | – | > 100 µM | > 100 µM | > 100 µM | > 100 µM | – |
| CCOC(=O)C1=C(c2ccccc2)N(C(C)=O)Cc2ccccc21 | 64.8 µM | > 100 µM | 41.3 µM | > 100 µM | 32 µM | 43.2 µM | > 100 µM | 34.6 µM | > 100 µM | 51.7 µM | > 100 µM | 66.7 µM | 78.7 µM | 38.7 µM | 77.1 µM | 68.2 µM | 30.9 µM | 41.7 µM | – |
| Cc1nc2ccc(N)cc2[nH]c1=O | – | > 100 µM | > 100 µM | > 100 µM | > 100 µM | > 100 µM | > 100 µM | > 100 µM | > 100 µM | – | > 100 µM | > 100 µM | > 100 µM | > 100 µM | – | – | > 100 µM | – | – |
| O=C(O)COc1ccc(C(=O)/C(SS/C(C(=O)c2ccc(OCC(=O)O)c(Cl)c2Cl)=C2\C=C(c3ccccc3Cl)SS2)=C2/C=C(c3ccccc3Cl)SS2)c(Cl)c1Cl | > 88.3 µM | > 49 µM | 52 µM | > 95.7 µM | > 77.1 µM | 53 µM | > 100 µM | > 83.1 µM | 63.2 µM | 11.3 µM | > 89.3 µM | > 68.9 µM | 33.5 µM | 42.5 µM | > 100 µM | – | 17.2 µM | 6.91 µM | – |
| N#CC1CCCCC1NC1(C#N)CCCCC1 (stereo not drawn) | > 100 µM | > 100 µM | – | > 100 µM | > 100 µM | > 100 µM | > 100 µM | > 100 µM | > 100 µM | > 100 µM | > 100 µM | – | > 100 µM | > 100 µM | > 100 µM | > 100 µM | > 100 µM | – | – |
| CC(=O)NC(CCCNC(=O)OCc1ccccc1)C(=O)O (stereo not drawn) | > 100 µM | > 100 µM | > 100 µM | > 100 µM | > 100 µM | > 100 µM | > 100 µM | > 100 µM | > 100 µM | > 100 µM | > 100 µM | > 100 µM | > 100 µM | > 100 µM | > 100 µM | > 100 µM | > 100 µM | – | – |
| CCOC(=O)CC(NCc1ccc(N=Cc2nc3ccc(C(F)(F)F)cc3nc2-c2ccccc2)cc1)C(=O)OCC (stereo not drawn) | > 100 µM | > 100 µM | > 100 µM | > 80.6 µM | > 100 µM | > 100 µM | > 100 µM | > 100 µM | > 100 µM | > 100 µM | > 100 µM | > 100 µM | > 100 µM | > 100 µM | > 77 µM | 56 µM | > 58 µM | > 100 µM | – |
| COC(=O)C1(O)c2ccccc2N=C2C1CCN2C (stereo not drawn) | > 100 µM | > 100 µM | > 100 µM | > 100 µM | > 100 µM | – | > 100 µM | > 100 µM | > 100 µM | > 100 µM | > 100 µM | > 100 µM | > 100 µM | > 100 µM | 87.8 µM | > 100 µM | > 100 µM | > 100 µM | – |
| COC(=O)C(Cc1nc2ccccc2[nH]c1=O)C(=O)C(=O)Nc1ccc(F)cc1 (stereo not drawn) | 56.4 µM | – | > 100 µM | > 100 µM | > 100 µM | > 100 µM | > 100 µM | > 100 µM | > 100 µM | 22.3 µM | > 100 µM | > 100 µM | > 100 µM | – | > 100 µM | 47.1 µM | > 100 µM | > 100 µM | – |
| CCSc1nnc(-c2ccccc2)nc1Cc1ccc(OC)cc1 | > 100 µM | > 100 µM | > 100 µM | > 100 µM | > 100 µM | > 100 µM | > 100 µM | > 100 µM | > 100 µM | > 100 µM | > 100 µM | > 100 µM | > 100 µM | > 100 µM | > 100 µM | > 100 µM | > 100 µM | > 100 µM | – |
| O=S(=O)(Oc1ccc2ccccc2c1-c1c(OS(=O)(=O)C(F)(F)F)ccc2ccccc12)C(F)(F)F | > 100 µM | > 100 µM | > 100 µM | – | > 100 µM | > 100 µM | > 100 µM | 8.3 µM | > 100 µM | > 100 µM | > 100 µM | > 100 µM | > 100 µM | > 100 µM | > 100 µM | > 100 µM | > 100 µM | > 100 µM | – |
| Cc1ccc2nc3c(C)cc(=O)cc-3sc2c1 | > 100 µM | 31.5 µM | 60.6 µM | 49.8 µM | 72.2 µM | 55.2 µM | > 100 µM | 59.2 µM | > 100 µM | 45.1 µM | 66.4 µM | 53.1 µM | 33.1 µM | – | 69.2 µM | – | 42.6 µM | 46.7 µM | – |
| Cc1c/c(=N/NC(=O)c2ccncc2)n2nc(N)sc2n1 | – | > 100 µM | > 100 µM | – | > 100 µM | > 100 µM | > 100 µM | > 100 µM | > 100 µM | > 100 µM | > 100 µM | > 100 µM | > 100 µM | > 100 µM | > 100 µM | > 100 µM | > 100 µM | > 100 µM | > 100 µM |
| COC(=O)/C(=N/NC(C)(C)C)C(C(=O)OC)C(=O)C(=O)Nc1nc2ccc([N+](=O)[O-])cc2s1 (stereo not drawn) | > 100 µM | > 100 µM | > 100 µM | > 100 µM | > 100 µM | > 100 µM | > 100 µM | > 100 µM | > 100 µM | > 100 µM | > 100 µM | > 100 µM | > 100 µM | > 100 µM | – | – | > 100 µM | > 100 µM | – |
| N#Cc1cn(-c2c3ccccc3nc3ccccc23)c(=O)[nH]c1=O | 29.7 µM | 23.3 µM | – | > 100 µM | 64.3 µM | 35.6 µM | 33.1 µM | 27.7 µM | 71.8 µM | 18.3 µM | 38.1 µM | 34.8 µM | 41.7 µM | 75.8 µM | 33.3 µM | – | 7.71 µM | 24.6 µM | – |
| Nc1nc2ncn(CC(O)COC(=O)c3ccccc3)c2c(=O)[nH]1 (stereo not drawn) | > 100 µM | > 100 µM | > 100 µM | > 100 µM | > 100 µM | > 100 µM | > 100 µM | > 100 µM | > 100 µM | > 100 µM | > 100 µM | > 100 µM | > 100 µM | > 100 µM | > 100 µM | > 100 µM | > 100 µM | > 100 µM | – |
| CCC(C)[C@@H]1NC(=O)[C@@H]2CCCN2C(=O)C(CC(O)CO)OC(=O)CCNC(=O)[C@H](C)N(C)C(=O)[C@H](C(C)C)N(C)C1=O (stereo partly drawn) (cyclo([Ile(3ξ)][NMeV][NMeA][βAla][X22]P)) | > 100 µM | > 100 µM | > 100 µM | > 100 µM | > 100 µM | > 100 µM | > 100 µM | > 100 µM | > 100 µM | – | – | – | > 100 µM | > 100 µM | > 100 µM | > 100 µM | > 100 µM | > 100 µM | – |
